{"source": "ChEMBL document CHEMBL1201862", "about": "“PubChem BioAssay data set” (2004)", "key": {"[1]": {"molecular_target": "T1, Estrogen receptor (Homo sapiens, UniProt P03372)", "T1 sequence (P03372 whole entry)": "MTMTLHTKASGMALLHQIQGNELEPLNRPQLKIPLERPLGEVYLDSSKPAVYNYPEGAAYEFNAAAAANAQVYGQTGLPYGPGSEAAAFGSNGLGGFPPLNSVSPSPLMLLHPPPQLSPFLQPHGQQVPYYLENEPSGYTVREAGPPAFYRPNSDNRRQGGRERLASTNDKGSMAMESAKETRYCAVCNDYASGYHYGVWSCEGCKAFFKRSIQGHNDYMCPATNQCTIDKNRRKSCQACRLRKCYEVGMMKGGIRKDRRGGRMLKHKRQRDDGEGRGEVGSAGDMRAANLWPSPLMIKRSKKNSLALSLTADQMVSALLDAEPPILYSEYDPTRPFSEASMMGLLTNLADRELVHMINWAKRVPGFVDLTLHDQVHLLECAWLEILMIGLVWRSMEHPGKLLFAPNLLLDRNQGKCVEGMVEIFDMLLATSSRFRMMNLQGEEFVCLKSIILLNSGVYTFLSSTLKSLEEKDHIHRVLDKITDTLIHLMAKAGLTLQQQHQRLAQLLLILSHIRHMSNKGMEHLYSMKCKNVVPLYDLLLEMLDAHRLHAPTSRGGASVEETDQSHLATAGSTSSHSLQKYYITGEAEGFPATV"}, "[2]": {"molecular_target": "Estrogen receptor beta (Homo sapiens, UniProt Q92731)", "sequence (Q92731 whole entry)": "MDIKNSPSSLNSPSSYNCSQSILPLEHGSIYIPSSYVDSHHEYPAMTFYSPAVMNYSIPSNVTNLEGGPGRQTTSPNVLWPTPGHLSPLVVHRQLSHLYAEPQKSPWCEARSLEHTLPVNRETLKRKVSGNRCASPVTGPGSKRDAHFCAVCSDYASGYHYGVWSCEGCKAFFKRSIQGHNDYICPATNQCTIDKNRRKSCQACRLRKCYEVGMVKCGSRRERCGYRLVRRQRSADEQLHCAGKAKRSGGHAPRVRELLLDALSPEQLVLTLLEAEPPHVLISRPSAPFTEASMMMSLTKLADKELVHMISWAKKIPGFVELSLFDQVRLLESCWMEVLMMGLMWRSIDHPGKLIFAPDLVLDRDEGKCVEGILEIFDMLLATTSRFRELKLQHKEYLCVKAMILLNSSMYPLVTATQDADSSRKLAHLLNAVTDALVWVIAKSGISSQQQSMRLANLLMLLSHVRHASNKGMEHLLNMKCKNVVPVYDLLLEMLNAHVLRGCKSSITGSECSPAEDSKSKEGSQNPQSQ", "assay": "ERβ–SRC-3 coactivator interaction inhibitors, confirmation, orthogonal assay, biochemical, ELISA, streptavidin-HRP readout (AID 1060)"}}, "note": "The source made the active and inactive calls."}
{"smiles": "N#CC1=C(N)OC2=C(CCC/C2=C/c2ccoc2)C1c1ccoc1", "note": "(configuration not stated)", "values": [{"measurement": "IC50", "setting": "[1]", "value": "10 µM (active)"}, {"measurement": "IC50", "setting": "[2]", "value": "3.99 µM (not active)"}]}
